Assay results as given in the supplement of paper PMC13380429.

Key:
Settings in all cases: 72 h
[1] = test system: U2OS; assay: relative viability EC50 (midpoint between 100% and the lowest measured viability); higher = less toxic
[2] = test system: Vero E6; assay: as above
[3] = test system: HepG2; assay: as above
[4] = test system: Calu-3; assay: as above
[5] = test system: Caco-2; assay: as above
[6] = test system: U2OS; assay: cell viability relative to DMSO; higher = less toxic
[7] = test system: Vero E6; assay: as above
[8] = test system: HepG2; assay: as above
[9] = test system: Calu-3; assay: as above
[10] = test system: Caco-2; assay: as above
[11] = test system: U2OS; assay: drug sensitivity score (DSS) for viability; higher = more toxic; extreme values may be limits of the assay
[12] = test system: Vero E6; assay: as above
[13] = test system: HepG2; assay: as above
[14] = test system: Calu-3; assay: as above
[15] = test system: Caco-2; assay: as above

| SMILES | relative viability EC50 [1] [µM] | relative viability EC50 [2] [µM] | relative viability EC50 [3] [µM] | relative viability EC50 [4] [µM] | relative viability EC50 [5] [µM] | cell viability ([6]; 1 nM) [%] | cell viability ([6]; 10 nM) [%] | cell viability ([6]; 100 nM) [%] | cell viability ([6]; 1000 nM) [%] | cell viability ([6]; 10000 nM) [%] | cell viability ([7]; 1 nM) [%] | cell viability ([7]; 10 nM) [%] | cell viability ([7]; 100 nM) [%] | cell viability ([7]; 1000 nM) [%] | cell viability ([7]; 10000 nM) [%] | cell viability ([8]; 1 nM) [%] | cell viability ([8]; 10 nM) [%] | cell viability ([8]; 100 nM) [%] | cell viability ([8]; 1000 nM) [%] | cell viability ([8]; 10000 nM) [%] | cell viability ([9]; 1 nM) [%] | cell viability ([9]; 10 nM) [%] | cell viability ([9]; 100 nM) [%] | cell viability ([9]; 1000 nM) [%] | cell viability ([9]; 10000 nM) [%] | cell viability ([10]; 1 nM) [%] | cell viability ([10]; 10 nM) [%] | cell viability ([10]; 100 nM) [%] | cell viability ([10]; 1000 nM) [%] | cell viability ([10]; 10000 nM) [%] | drug sensitivity score [11] | drug sensitivity score [12] | drug sensitivity score [13] | drug sensitivity score [14] | drug sensitivity score [15] |
| --- | --- | --- | --- | --- | --- | --- | --- | --- | --- | --- | --- | --- | --- | --- | --- | --- | --- | --- | --- | --- | --- | --- | --- | --- | --- | --- | --- | --- | --- | --- | --- | --- | --- | --- | --- |
| O=C(O)[C@H]1CN(C/C=C/P(=O)(O)O)CCN1 [midafotel] | > 10 | > 10 | > 10 | > 10 | > 10 | 96.3 | 104 | 99 | 103 | 106 | 95.5 | 93.9 | 95.6 | 91.9 | 106 | 97.5 | 94 | 104 | 93.1 | 107 | 97.6 | 94.8 | 105 | 111 | 97.4 | 102 | 101 | 97.4 | 102 | 98.3 | 0 | 0 | 0 | 0 | 0 |
| CCOC(=O)[C@H](CCc1ccccc1)N[C@@H](C)C(=O)N1Cc2cc(OC)c(OC)cc2C[C@H]1C(=O)O [moexipril] | > 10 | > 10 | > 10 | > 10 | > 10 | 96 | 102 | 92.8 | 100 | 95.7 | 96.2 | 102 | 96.6 | 96.9 | 102 | 95.8 | 98.6 | 96 | 95.5 | 92.2 | 97 | 97 | 107 | 111 | 104 | 106 | 96 | 101 | 89.3 | 98.2 | 0 | 0 | 0 | 0 | 0 |
| NC(=O)Cc1cccc(C(=O)c2ccccc2)c1N [nepafenac] | > 10 | > 10 | > 10 | > 10 | > 10 | 99.5 | 102 | 94.5 | 98.8 | 93.5 | 106 | 104 | 106 | 99.3 | 102 | 116 | 94.8 | 100 | 99.9 | 105 | 101 | 97.9 | 95.6 | 95.3 | 97.9 | 96.6 | 94.9 | 90.7 | 102 | 90.7 | 0 | 0 | 0 | 0 | 0 |
| NC(=O)c1cc([N+](=O)[O-])cc([N+](=O)[O-])c1 [nitromide] | > 10 | > 10 | > 10 | > 10 | > 10 | 100 | 98.4 | 101 | 96.5 | 107 | 98.3 | 96.6 | 93.6 | 94.5 | 108 | 112 | 95.1 | 99.7 | 119 | 104 | 93.9 | 101 | 95 | 105 | 112 | 97.5 | 95.2 | 95.8 | 104 | 104 | 0 | 0 | 0 | 0 | 0 |
| CNC(=O)N(C)N=O [nitrosodimethylurea] | > 10 | > 10 | > 10 | > 10 | > 10 | 99.8 | 95.7 | 95.1 | 98 | 108 | 93.6 | 92.4 | 95.4 | 86.3 | 97.9 | 88.6 | 100 | 103 | 100 | 97.7 | 111 | 103 | 100 | 91.6 | 109 | 85.7 | 106 | 94.7 | 86.9 | 116 | 0 | 0 | 0 | 0 | 0 |
| C/C=C1/[C@H](O[C@@H]2O[C@H](CO)[C@@H](O)[C@H](O)[C@H]2O)OC=C(C(=O)OC)[C@H]1CC(=O)OCCc1ccc(O)c(O)c1 [oleuropein] | > 10 | > 10 | > 10 | > 10 | > 10 | 105 | 98.7 | 101 | 95.1 | 97.8 | 98.8 | 103 | 98.7 | 105 | 95.2 | 101 | 97.1 | 98.1 | 108 | 84.4 | 90.8 | 98.8 | 101 | 102 | 93.6 | 101 | 108 | 99.9 | 101 | 88.8 | 0 | 0 | 0.1 | 0 | 0 |
| Cc1nccn1CC1CCc2c(c3ccccc3n2C)C1=O (stereo not given) [ondansetron] | > 10 | > 10 | > 10 | > 10 | > 10 | 96.5 | 99.4 | 103 | 99.4 | 102 | 101 | 97.4 | 103 | 95.6 | 103 | 95.6 | 83.5 | 97 | 105 | 93.3 | 84.8 | 90.1 | 81.6 | 97.6 | 89.2 | 102 | 99.4 | 94.1 | 81.2 | 104 | 0 | 0 | 0 | 0 | 0 |
